Data reported in patent publication US20240132461A1, “FLAVONE DEAZA SPERMIDINE ANALOGUES AND THEIR USE TREATING CANCER” (FLORATEK PHARMA S.A., priority 2021, published 2024).

Experiments:
MCF-7 = assay: Cell viability assay, breast carcinoma cell line MCF-7; format: cell-based; conditions: Homo sapiens, MCF7; MCF-7 breast carcinoma cell line
Experimental: (§1) Antitumor activity of the compounds and doxorubicin as a positive control was assessed by using the CellTiter-Blue Cell Viability Assay (Promega, #G8082) or CellTiter-Glow® Luminescent Cell Viability assay (Promega # G7572) according to the manufacturer's instructions. The compounds were tested at 5 or 6 concentrations in half-log increments (highest concentration 30 μM-100 μM) in duplicate or triplicate well conditions.
(§2) Tumor cells were grown at 37° C. in a humidified atmosphere with 5% CO2 in RPMI 1640 or DMEM medium, supplemented with 10% (v/v) fetal calf serum and 50 μg/ml gentamicin for up to 20 passages, and were passaged once or twice weekly. Cells were harvested using TrypLE or PBS buffer containing 1 mM EDTA, and the percentage of viable cells is determined using a CASY Model TT cell counter (OMNI Life Science). Cells were harvested from exponential phase cultures, counted and plated in 96 well flat-bottom microtiter plates at a cell density depending on the cell line's growth rate (4,000-20,000 cells/well depending on the cell line's growth rate, up to 60,000 for hematological cancer cell lines) in RPMI 1640 or DMEM medium supplemented with 10% (v/v) fetal calf serum and 50 μg/ml gentamicin (140 μl/well). […] Viability of cells was quantified by the CellTiter-Blue® cell viability assay (Promega G8081) or CellTiter-Glow® Luminescent Cell Viability assay (Promega # G7572). […]

CO-04-0700 = assay: PDX cytotoxicity assay, colon PDX CO-04-0700; format: cell-based
Experimental: (§3) PDX-derived cell cultures were obtained from tumors explanted from mice and isolated by mechanical and enzymatic dissociation. […] Cells were harvested and seeded in 96-wells plates at a density of 1.25 to 5×10^3 cells/well for cytotoxicity assays. Cells were incubated 48 h at 37° C. prior to addition of test molecules and vehicle (DMSO, 0.1%) at desired final concentrations. Cell viability was assessed before drugs' addition (T0) and 5 days after test molecules addition by measuring ATP cell content using CellTiter-Glo® Luminescent Cell Viability Assay (Promega) according to the manufacturer's instructions. Luciferase activity was measured on a luminometer (PerkinElmer® EnVision™). Each concentration of compounds was tested in triplicate.
(§4) Viability was calculated as a percentage of ATP value compared to vehicle treated controls.
(§5) For PDX primary cell cultures, the tumour tissue was washed with PBS containing antibiotic-antimycotic and non-tumour tissue and necrotic tumour tissues were separated. The tumour tissue was transferred to a new dish and cut into 1˜2 mm^3 fragments, resuspended in RPMI-1640 medium and centrifuged at 1,200 rpm for 6 min at room temperature. The pelleted material was resuspended with 15 mL of Tumour Cell Digestion Solution and incubated at 37° C. for 1 hour with agitation. […]

MOLT-16 = assay: Cell viability assay, leukaemia cell line MOLT-16; format: cell-based; conditions: Homo sapiens; MOLT-16 leukaemia cell line
Experimental: as §1, §2

SU-DHL-4 = assay: Cell viability assay, lymphoma cell line SU-DHL-4; format: cell-based; conditions: Homo sapiens; SU-DHL-4 lymphoma cell line
Experimental: as §1, §2

GA-10 = assay: Cell viability assay, lymphoma cell line GA-10; format: cell-based; conditions: Homo sapiens; GA-10 lymphoma cell line
Experimental: as §1, §2

CH-17-0091 = assay: PDX cytotoxicity assay, bile duct PDX CH-17-0091; format: cell-based
Experimental: as §3, §4, §5

ST-02-0322 = assay: PDX cytotoxicity assay, stomach PDX ST-02-0322; format: cell-based
Experimental: as §3, §4, §5

PIM1 = target: T1, PIM1 (Homo sapiens, UniProt P11309); assay: KINOMEscan competition binding assay, PIM1
T1 construct: purchased Eurofins (KINOMEscan assay service); host or cells: E. coli BL21-derived (T7 phage) or HEK-293
Description: (§6) The Hill Slope was set to −1.

[1] = target: T2, RSK2(Kin.Dom.1-N-terminal) (Homo sapiens, UniProt P51812); assay: KINOMEscan competition binding assay, RSK2(Kin.Dom.1-N-terminal)
T2 construct: RSK2(Kin.Dom.1-N-terminal); purchased Eurofins (KINOMEscan assay service); host or cells: E. coli BL21-derived (T7 phage) or HEK-293
Description: as §6

[2] = In vivo maximum tolerated dose in NOG mice
Experimental: In order to evaluate the general toxicity of selected SND compounds in an animal model, a maximum tolerated dose (MTD) in NOG mice has been undertaken. Three mice per group were treated daily or every other day over 8 days at various doses between 5 mg/kg and 10 mg/kg. Administration of the compounds was i.p. A stock solution of the compounds (40 mg/ml in DMSO) was prepared and frozen at −20° C. in aliquots for each treatment. […] Body weights were measured before each treatment. Mice were further observed for 1 week after the last treatment.

brain cancer cell = assay: Cell viability assay, brain cancer cell lines (summary); format: cell-based; conditions: summary of Tables 3A-D; read-out: IC50s, brain cancer cell growth
Experimental: as §1
(§7) Tumor cells were grown at 37° C. in a humidified atmosphere with 5% CO2 in RPMI 1640 or DMEM medium, supplemented with 10% (v/v) fetal calf serum and 50 μg/ml gentamicin for up to 20 passages, and were passaged once or twice weekly. Cells were harvested using TrypLE or PBS buffer containing 1 mM EDTA, and the percentage of viable cells is determined using a CASY Model TT cell counter (OMNI Life Science). Cells were harvested from exponential phase cultures, counted and plated in 96 well flat-bottom microtiter plates at a cell density depending on the cell line's growth rate (4,000-20,000 cells/well depending on the cell line's growth rate, up to 60,000 for hematological cancer cell lines) in RPMI 1640 or DMEM medium supplemented with 10% (v/v) fetal calf serum and 50 μg/ml gentamicin (140 μl/well). Cultures were incubated at 37° C. and 5% CO2 in a humidified atmosphere. After 24 h, 10 μl of test compounds or control medium are added, and left on the cells for another 72 h. Compounds were serially diluted in DMSO, transferred in cell culture medium, and added to the assay plates. The DMSO concentration was kept constant at <0.3% v/v across the assay plate. Viability of cells was quantified by the CellTiter-Blue® cell viability assay (Promega G8081) or CellTiter-Glow® Luminescent Cell Viability assay (Promega # G7572). Fluorescence (FU) was measured by using the EnSpire® multimode plate reader (Perkin Elmer) (excitation λ=570 nm, emission λ=600 nm) or luminescent detection of ATP in viable cells was used as parameter for proliferation. Luminescence was measured with the microplate luminometer (Promega or Perkin Elmer).
(§8) Sigmoidal concentration-response curves were fitted to the data points (test-versus-control, T/C values) obtained for each tumor model using 4 parameter non-linear curve fit (Charles River DRS Datawarehouse Software) or with GraphPad prism 5.02 software. IC50 values are reported as absolute IC50 values, being the concentration of test compound at the intersection of the concentration-response curves with T/C=50%

breast cancer cell = assay: Cell viability assay, breast cancer cell lines (summary); format: cell-based; conditions: summary of Tables 4A and 4B; read-out: IC50s, breast cancer cell growth
Experimental: as §1, §7, §8

leukaemia cell = assay: Cell viability assay, leukaemia cell lines (summary); format: cell-based; conditions: summary of Table 6A; read-out: IC50, leukaemia cell growth
Experimental: as §1, §2

lung carcinoma cell = assay: Cell viability assay, lung carcinoma cell lines (summary); format: cell-based; conditions: summary of Tables 7A-E; read-out: IC50s, lung carcinoma cell growth
Experimental: as §1, §7, §8

Compound COc1c(O)ccc2c(=O)cc(-c3ccc(CNCCCCNCCCN)cc3)oc12 [SND164] has an IC50 (MCF-7) of 4.3 µM, an IC50 (CO-04-0700) of 7 µM and an IC50 (MOLT-16) of 4.36 µM. For the same compound, the IC50 (SU-DHL-4) was 3.3 µM, the IC50 (GA-10) was 3.9 µM and the IC50 (CH-17-0091) was 13.8 µM. The IC50 (ST-02-0322) was 5.45 µM, the Kd (PIM1) was 0.58 µM and the Kd [1] was 1.4 µM. For the same compound, the “tolerability at the highest dose administered” value ([2]; 8-10 mg/kg i.p., daily or every other day over 8 days) was “well tolerated”, the MTD at 8 days ([2]; mouse, in vivo, ip, repeated i.p. administration, MTD not reached, read-out: maximum tolerated dose (MTD), estimated) was > 10 mg/kg and the IC50 (brain cancer cell) was < 10 µM. The IC50 (breast cancer cell) was < 10 µM, the IC50 (leukaemia cell) was < 10 µM and the IC50 (lung carcinoma cell) was < 20 µM.
